Patent publication US20260356819A1, “OXOISOINDOLINYL-SUBSTITUTED […] DERIVATIVE AND USE THEREOF” (GLUETACS THERAPEUTICS (SHANGHAI) CO., LTD., priority 2023, published 2026)

Columns and labels:
[1] = target: T1, GSPT1 (Homo sapiens, UniProt P15170+Q96SW2); assay: Western blot degradation of GSPT1 in hPBMCs (24 h); assay type: cell-based; settings: compounds at 50 nM and 500 nM
T1 construct: The supernatant was aspirated as the extracted total cell protein; endogenous in cells; host or cells: human peripheral blood mononuclear cells (hPBMCs)
Outline: (§1)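 hPBMCs (1×10^6 cells/mL) were treated with compound at 50 nM and 500 nM for 24 h, lysed in RIPA with protease inhibitors and analysed by SDS-PAGE/Western blot. Band grayscale, normalised to internal control, gave protein remaining (%); DC50 estimated versus DMSO bands.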

[2] = target: T2, IKZF2 (Homo sapiens, UniProt Q96SW2+Q9UKS7); assay: Western blot degradation of IKZF2 in hPBMCs (24 h); assay type: cell-based; settings: compounds at 50 nM and 500 nM
T2 construct: The supernatant was aspirated as the extracted total cell protein; endogenous in cells; host or cells: human peripheral blood mononuclear cells (hPBMCs)
Outline: as §1

[3] = target: T3, IKZF1 (Homo sapiens, UniProt Q13422+Q96SW2); assay: Western blot degradation of IKZF1 in hPBMCs (24 h); assay type: cell-based; settings: compounds at 50 nM and 500 nM
T3 construct: The supernatant was aspirated as the extracted total cell protein; endogenous in cells; host or cells: human peripheral blood mononuclear cells (hPBMCs)
Outline: as §1

[4] = tested on: MM.1S cells; assay: Inhibition of proliferation of multiple myeloma cells MM.1S (cell viability assay, 96 h); assay type: cell-based, human; settings: read-out: inhibitory activity (IC50) against tumor cells proliferation, MM.1S
Method: (§2) The tumor cells used herein were cultured in a cell culture medium listed in table 2 at 37 °C in an incubator with 5% CO2. Prior to experimentation, all cell lines used were correctly identified by STR profiling, and tested negative for Mycoplasma contamination using a Mycoplasma detection kit through routine screenings.
(§3) The IC50 values of the compounds of the present disclosure (including the compounds in Table 1, and Examples 1-498) were determined using the CellTiter-Meiluncell Luminescent Cell Viability Assay Kit from Dalian Meilun Biotech Co., Ltd. The detailed procedure is as follows: Tumor cells were seeded in 96-well cell culture plates at the densities specified in Table 3. On the following day, the test compounds of the present disclosure were subjected to serial dilution. […] Subsequently, 0.5 μL of the test compound dilution was transferred into the 96-well plate containing the cells, with each well containing 100 μL of cell culture medium. […] Into the 96-well plate, the diluted test compounds and corresponding detection reagents were added, resulting in final test compound concentrations of 500 nM and 10 nM, respectively. The experimental procedure is described below using the diluted 2 μM test compound as an example.
(§4) 0.5 μL of the aforementioned diluted compound of the present disclosure (including the compounds in Table 1, and Examples 1-498) was added to the seeded cells in 100 μL of medium, yielding a final test compound concentration of 10 nM. After the cells were treated with the compounds of the present disclosure for a specified period, the cell viability assay reagent was added to the culture medium according to the kit's instructions to determine cell viability. […] All controls were treated using the same procedure as the compounds of the present disclosure. The growth inhibition curves for the compounds of the present disclosure were plotted using Prism GraphPad software, and the IC50 values were calculated therefrom.

[5] = target: T4, IKZF3 (Homo sapiens, UniProt Q96SW2+Q9UKT9); assay: Western blot degradation of IKZF3 in hPBMCs (24 h); assay type: cell-based; settings: compounds at 50 nM and 500 nM
T4 construct: The supernatant was aspirated as the extracted total cell protein; endogenous in cells; host or cells: human peripheral blood mononuclear cells (hPBMCs)
Outline: as §1

[6] = target: T5, CK1α (Homo sapiens, UniProt P48729+Q96SW2); assay: Western blot degradation of CK1α in hPBMCs (24 h); assay type: cell-based; settings: compounds at 50 nM and 500 nM
T5 construct: The supernatant was aspirated as the extracted total cell protein; endogenous in cells; host or cells: human peripheral blood mononuclear cells (hPBMCs)
Outline: as §1

[7] = tested on: Jurkat cells; assay: Inhibition of proliferation of T lymphocytic leukemia cells Jurkat (cell viability assay, 96 h); assay type: cell-based, human; settings: read-out: inhibitory activity (IC50) against tumor cells proliferation, Jurkat
Method: as §2, §3, §4

[8] = target: T6, WEE1 (Homo sapiens, UniProt P30291+Q96SW2); assay: Western blot degradation of WEE1 in hPBMCs (24 h); assay type: cell-based; settings: compounds at 50 nM and 500 nM
T6 construct: The supernatant was aspirated as the extracted total cell protein; endogenous in cells; host or cells: human peripheral blood mononuclear cells (hPBMCs)
Outline: as §1

T3 sequence (Q13422 whole entry): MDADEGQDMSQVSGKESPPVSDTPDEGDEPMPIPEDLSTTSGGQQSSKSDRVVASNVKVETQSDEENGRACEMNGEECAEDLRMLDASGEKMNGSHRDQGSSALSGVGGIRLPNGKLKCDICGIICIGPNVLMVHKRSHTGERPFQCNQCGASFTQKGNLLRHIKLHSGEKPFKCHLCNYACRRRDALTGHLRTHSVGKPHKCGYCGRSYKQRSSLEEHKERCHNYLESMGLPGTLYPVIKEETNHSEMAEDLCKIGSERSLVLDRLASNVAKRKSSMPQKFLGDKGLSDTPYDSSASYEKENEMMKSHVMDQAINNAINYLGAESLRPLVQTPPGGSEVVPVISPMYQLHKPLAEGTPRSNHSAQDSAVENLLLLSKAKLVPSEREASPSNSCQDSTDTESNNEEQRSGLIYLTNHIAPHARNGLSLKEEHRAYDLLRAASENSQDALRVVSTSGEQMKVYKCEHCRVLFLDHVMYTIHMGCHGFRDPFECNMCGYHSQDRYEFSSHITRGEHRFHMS
T3 sequence (Q96SW2 whole entry): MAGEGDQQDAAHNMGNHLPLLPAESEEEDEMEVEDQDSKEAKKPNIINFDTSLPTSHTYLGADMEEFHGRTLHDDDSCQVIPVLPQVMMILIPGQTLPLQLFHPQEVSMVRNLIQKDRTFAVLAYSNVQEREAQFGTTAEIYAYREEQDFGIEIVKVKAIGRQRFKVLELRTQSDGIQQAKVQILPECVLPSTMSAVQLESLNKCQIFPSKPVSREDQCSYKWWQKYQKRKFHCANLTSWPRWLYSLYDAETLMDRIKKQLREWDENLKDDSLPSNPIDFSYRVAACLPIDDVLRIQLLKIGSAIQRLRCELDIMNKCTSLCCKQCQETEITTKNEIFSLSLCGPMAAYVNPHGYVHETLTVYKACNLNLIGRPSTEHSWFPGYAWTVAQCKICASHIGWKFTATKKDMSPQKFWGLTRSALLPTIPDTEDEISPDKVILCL
T3 sequence (Q16531 whole entry partner): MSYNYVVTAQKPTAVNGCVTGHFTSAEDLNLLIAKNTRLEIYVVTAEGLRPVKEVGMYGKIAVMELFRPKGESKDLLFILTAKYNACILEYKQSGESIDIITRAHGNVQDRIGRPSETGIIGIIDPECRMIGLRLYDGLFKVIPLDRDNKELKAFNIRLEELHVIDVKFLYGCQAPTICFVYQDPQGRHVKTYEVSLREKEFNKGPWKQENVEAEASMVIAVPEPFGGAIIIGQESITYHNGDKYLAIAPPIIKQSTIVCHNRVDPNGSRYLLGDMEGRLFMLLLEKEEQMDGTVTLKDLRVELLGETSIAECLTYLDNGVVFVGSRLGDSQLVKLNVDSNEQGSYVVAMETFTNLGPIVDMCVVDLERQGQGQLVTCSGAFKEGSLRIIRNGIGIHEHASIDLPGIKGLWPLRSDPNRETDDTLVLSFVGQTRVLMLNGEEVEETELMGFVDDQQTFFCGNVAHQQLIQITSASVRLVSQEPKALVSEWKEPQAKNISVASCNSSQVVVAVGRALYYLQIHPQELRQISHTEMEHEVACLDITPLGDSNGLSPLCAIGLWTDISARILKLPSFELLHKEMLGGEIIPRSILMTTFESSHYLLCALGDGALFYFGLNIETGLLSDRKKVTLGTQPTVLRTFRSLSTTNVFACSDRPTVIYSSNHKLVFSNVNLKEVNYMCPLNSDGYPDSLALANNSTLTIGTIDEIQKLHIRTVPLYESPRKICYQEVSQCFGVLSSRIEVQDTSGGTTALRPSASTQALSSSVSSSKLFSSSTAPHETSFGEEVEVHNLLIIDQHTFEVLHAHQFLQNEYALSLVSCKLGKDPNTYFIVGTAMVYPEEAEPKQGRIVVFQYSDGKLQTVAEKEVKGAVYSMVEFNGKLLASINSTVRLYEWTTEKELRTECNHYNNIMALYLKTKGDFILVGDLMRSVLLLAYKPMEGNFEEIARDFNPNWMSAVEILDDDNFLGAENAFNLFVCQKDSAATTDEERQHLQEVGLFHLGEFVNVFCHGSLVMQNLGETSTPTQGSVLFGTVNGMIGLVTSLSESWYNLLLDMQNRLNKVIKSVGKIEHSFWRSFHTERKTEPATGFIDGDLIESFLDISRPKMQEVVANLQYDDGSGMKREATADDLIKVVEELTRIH
T4 sequence (Q9UKT9 whole entry): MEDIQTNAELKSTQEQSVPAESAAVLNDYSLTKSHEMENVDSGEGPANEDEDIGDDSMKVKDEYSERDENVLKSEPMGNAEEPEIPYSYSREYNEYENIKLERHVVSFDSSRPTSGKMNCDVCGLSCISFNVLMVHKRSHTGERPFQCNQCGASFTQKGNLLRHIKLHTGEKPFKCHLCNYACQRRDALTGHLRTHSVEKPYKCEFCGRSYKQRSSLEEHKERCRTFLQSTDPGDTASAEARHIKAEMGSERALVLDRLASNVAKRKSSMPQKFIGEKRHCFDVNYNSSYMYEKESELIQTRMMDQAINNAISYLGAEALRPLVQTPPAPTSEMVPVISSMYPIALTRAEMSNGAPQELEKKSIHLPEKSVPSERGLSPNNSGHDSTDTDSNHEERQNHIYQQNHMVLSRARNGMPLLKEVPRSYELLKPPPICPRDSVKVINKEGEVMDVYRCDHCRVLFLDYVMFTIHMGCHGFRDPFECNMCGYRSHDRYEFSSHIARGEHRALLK
T4 sequence (Q96SW2 whole entry): as the sequence (Q96SW2 whole entry) above
T4 sequence (Q16531 whole entry partner): as the sequence (Q16531 whole entry partner) above
T5 sequence (P48729 whole entry): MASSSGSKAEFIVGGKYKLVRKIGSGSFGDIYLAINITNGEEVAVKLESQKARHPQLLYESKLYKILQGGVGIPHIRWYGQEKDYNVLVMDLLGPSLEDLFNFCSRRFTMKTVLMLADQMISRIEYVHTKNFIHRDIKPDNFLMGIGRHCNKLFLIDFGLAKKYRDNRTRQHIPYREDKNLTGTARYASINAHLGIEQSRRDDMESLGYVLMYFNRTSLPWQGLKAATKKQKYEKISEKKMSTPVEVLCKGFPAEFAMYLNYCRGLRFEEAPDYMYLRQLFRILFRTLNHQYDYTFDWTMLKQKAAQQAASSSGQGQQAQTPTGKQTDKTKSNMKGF
T5 sequence (Q96SW2 whole entry): as the sequence (Q96SW2 whole entry) above
T5 sequence (Q16531 whole entry partner): as the sequence (Q16531 whole entry partner) above
T1 sequence (P15170 whole entry): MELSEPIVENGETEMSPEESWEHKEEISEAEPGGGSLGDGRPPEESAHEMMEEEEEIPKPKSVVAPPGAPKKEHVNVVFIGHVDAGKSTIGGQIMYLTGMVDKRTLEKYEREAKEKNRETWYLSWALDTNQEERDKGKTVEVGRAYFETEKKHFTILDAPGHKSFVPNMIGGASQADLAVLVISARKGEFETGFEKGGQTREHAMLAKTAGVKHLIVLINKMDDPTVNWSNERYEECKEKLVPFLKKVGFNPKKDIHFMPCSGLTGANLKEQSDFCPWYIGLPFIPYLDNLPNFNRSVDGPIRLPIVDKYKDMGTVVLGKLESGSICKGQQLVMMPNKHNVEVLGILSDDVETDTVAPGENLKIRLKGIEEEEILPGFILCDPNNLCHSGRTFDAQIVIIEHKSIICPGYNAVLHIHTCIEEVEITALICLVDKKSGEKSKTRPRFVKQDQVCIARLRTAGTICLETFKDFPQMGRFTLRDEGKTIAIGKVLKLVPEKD
T1 sequence (Q96SW2 whole entry): as the sequence (Q96SW2 whole entry) above
T1 sequence (Q16531 whole entry partner): as the sequence (Q16531 whole entry partner) above
T2 sequence (Q9UKS7 whole entry): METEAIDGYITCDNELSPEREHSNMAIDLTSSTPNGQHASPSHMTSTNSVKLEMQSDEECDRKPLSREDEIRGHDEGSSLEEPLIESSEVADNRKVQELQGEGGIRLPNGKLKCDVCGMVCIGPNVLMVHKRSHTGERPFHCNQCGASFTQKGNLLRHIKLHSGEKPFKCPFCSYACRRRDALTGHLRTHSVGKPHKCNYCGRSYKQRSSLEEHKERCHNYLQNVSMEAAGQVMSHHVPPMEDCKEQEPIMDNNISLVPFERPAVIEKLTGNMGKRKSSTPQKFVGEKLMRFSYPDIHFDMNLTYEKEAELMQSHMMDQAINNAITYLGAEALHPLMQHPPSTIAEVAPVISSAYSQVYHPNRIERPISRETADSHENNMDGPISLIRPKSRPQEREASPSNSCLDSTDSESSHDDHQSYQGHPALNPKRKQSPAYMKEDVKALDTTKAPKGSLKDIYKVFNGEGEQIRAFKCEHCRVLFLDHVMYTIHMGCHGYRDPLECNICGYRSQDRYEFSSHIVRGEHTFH
T2 sequence (Q96SW2 whole entry): as the sequence (Q96SW2 whole entry) above
T2 sequence (Q16531 whole entry partner): as the sequence (Q16531 whole entry partner) above

Structure (SMILES) | GSPT1 substrate protein remaining % [1] | IKZF2 substrate protein remaining % [2] | IKZF1 substrate protein remaining % [3] | IC50 [4] [nM] | IKZF3 substrate protein remaining % [5] | CK1α substrate protein remaining % [6] | IC50 [7] [nM] | WEE1 substrate protein remaining % [8]
O=C1CCN(N2Cc3cc(CN4CC=C(c5ccco5)CC4)ccc3C2=O)C(=O)N1 [GT-04874, 1-(5-((4-(furan-2-yl)-3,6-dihydropyridin-1(2H)-yl)methyl)-1-oxoisoindolin-2-yl)dihydropyrimidine-2,4(1H,3H)-dione] | A (0% ≤ substrate protein remaining % ≤80%) | B (80%< substrate protein remaining % ≤100%) | A (0% ≤ substrate protein remaining % ≤80%) | 100 to 300 | A (0% ≤ substrate protein remaining % ≤80%) | B (80%< substrate protein remaining % ≤100%) | 500 to 1000 | A (0% ≤ substrate protein remaining % ≤80%)
O=C1CCN(N2C(=O)c3ccc(CN4CCN(c5ncc(C(F)(F)F)cc5Cl)CC4)cc3C2=O)C(=O)N1 [GT-07026, 5-((4-(3-chloro-5-(trifluoromethyl)pyridin-2-yl)piperazin-1-yl)methyl)-2-(2,4-dioxotetrahydropyrimidin-1(2H)-yl)isoindoline-1,3-dione] | A (0% ≤ substrate protein remaining % ≤80%) | B (80%< substrate protein remaining % ≤100%) | B (80%< substrate protein remaining % ≤100%) |  | B (80%< substrate protein remaining % ≤100%) | B (80%< substrate protein remaining % ≤100%) | 500 to 1000 | A (0% ≤ substrate protein remaining % ≤80%)
O=C1CCN(N2Cc3cc(CN4CCN(C(c5cccc(F)c5)c5cccc(F)c5)CC4)ccc3C2=O)C(=O)N1 [GT-07293, 1-(5-((4-(bis(3-fluorophenyl)methyl)piperazin-1-yl)methyl)-1-oxoisoindolin-2-yl)dihydropyrimidine-2,4(1H,3H)-dione] | A (0% ≤ substrate protein remaining % ≤80%) | A (0% ≤ substrate protein remaining % ≤80%) | B (80%< substrate protein remaining % ≤100%) | 100 to 300 | A (0% ≤ substrate protein remaining % ≤80%) | B (80%< substrate protein remaining % ≤100%) | 100 to 300 | A (0% ≤ substrate protein remaining % ≤80%)
O=C1CCN(N2Cc3cc(CN4CCC(c5ccsc5)CC4)ccc3C2=O)C(=O)N1 [GT-07371, 1-(1-oxo-5-((4-(thiophen-3-yl)piperidin-1-yl)methyl)isoindolin-2-yl)dihydropyrimidine-2,4(1H,3H)-dione] | A (0% ≤ substrate protein remaining % ≤80%) | B (80%< substrate protein remaining % ≤100%) | B (80%< substrate protein remaining % ≤100%) | 500 to 1000 | A (0% ≤ substrate protein remaining % ≤80%) | B (80%< substrate protein remaining % ≤100%) |  | B (80%< substrate protein remaining % ≤100%)
Cc1ccc(C2CCN(Cc3ccc4c(c3)CN(N3CCC(=O)NC3=O)C4=O)CC2)s1 [GT-07425, 1-(5-((4-(5-methylthiophen-2-yl)piperidin-1-yl)methyl)-1-oxoisoindolin-2-yl)dihydropyrimidine-2,4(1H,3H)-dione] | A (0% ≤ substrate protein remaining % ≤80%) | B (80%< substrate protein remaining % ≤100%) | B (80%< substrate protein remaining % ≤100%) | 500 to 1000 | B (80%< substrate protein remaining % ≤100%) | B (80%< substrate protein remaining % ≤100%) |  | B (80%< substrate protein remaining % ≤100%)
O=C1CCN(N2Cc3cc(CN4CC=C(c5ccnc(Cl)c5Cl)CC4)ccc3C2=O)C(=O)N1 [GT-07432, 1-(5-((2′,3′-dichloro-3,6-dihydro-[4,4′-bipyridin]-1(2H)-yl)methyl)-1-oxoisoindolin-2-yl)dihydropyrimidine-2,4(1H,3H)-dione] | A (0% ≤ substrate protein remaining % ≤80%) | A (0% ≤ substrate protein remaining % ≤80%) | A (0% ≤ substrate protein remaining % ≤80%) | 300 to 500 | A (0% ≤ substrate protein remaining % ≤80%) | A (0% ≤ substrate protein remaining % ≤80%) | 500 to 1000 | A (0% ≤ substrate protein remaining % ≤80%)
O=C1CCN(N2Cc3cc(CN4CCC(c5cccs5)CC4)ccc3C2=O)C(=O)N1 [GT-07511, 1-(1-oxo-5-((4-(thiophen-2-yl)piperidin-1-yl)methyl)isoindolin-2-yl)dihydropyrimidine-2,4(1H,3H)-dione] | A (0% ≤ substrate protein remaining % ≤80%) | A (0% ≤ substrate protein remaining % ≤80%) | A (0% ≤ substrate protein remaining % ≤80%) | 500 to 1000 | B (80%< substrate protein remaining % ≤100%) | A (0% ≤ substrate protein remaining % ≤80%) | 500 to 1000 | A (0% ≤ substrate protein remaining % ≤80%)
Cn1cc(C2CCN(Cc3ccc4c(c3)CN(N3CCC(=O)NC3=O)C4=O)CC2)c2ccc(F)cc21 [GT-07575, 1-(5-((4-(6-fluoro-1-methyl-1H-indol-3-yl)piperidin-1-yl)methyl)-1-oxoisoindolin-2-yl)dihydropyrimidine-2,4(1H,3H)-dione] | A (0% ≤ substrate protein remaining % ≤80%) | A (0% ≤ substrate protein remaining % ≤80%) | A (0% ≤ substrate protein remaining % ≤80%) | 100 to 300 | A (0% ≤ substrate protein remaining % ≤80%) | A (0% ≤ substrate protein remaining % ≤80%) | 100 to 300 | A (0% ≤ substrate protein remaining % ≤80%)
O=C1CCN(N2Cc3cc(CN4CC=C(c5c[nH]c6ncccc56)CC4)ccc3C2=O)C(=O)N1 [GT-07577, 1-(5-((4-(1H-pyrrolo[2,3-b]pyridin-3-yl)-3,6-dihydropyridin-1 (2H)-yl)methyl)-1-oxoisoindolin-2-yl)dihydropyrimidine-2,4(1H,3H)-dione] | A (0% ≤ substrate protein remaining % ≤80%) | B (80%< substrate protein remaining % ≤100%) | A (0% ≤ substrate protein remaining % ≤80%) | 300 to 500 | A (0% ≤ substrate protein remaining % ≤80%) | A (0% ≤ substrate protein remaining % ≤80%) | 500 to 1000 | A (0% ≤ substrate protein remaining % ≤80%)
